Reference: ChEMBL document CHEMBL1629541, “Synthesis and structure-activity relationships of aza- and diazabiphenyl analogues of the antitubercular drug (6S)-2-nitro-6-{[4-(trifluoromethoxy)benzyl]oxy}-6,7-dihydro-5H-imidazo[2,1-b][1,3]oxazine (PA-824)” (J Med Chem, 2010)
In brackets after ≈: the same amount, converted by molar mass.

Assays:
[1] = physchem; conditions: water, pH 7
Description: Solubility of the compound in water at pH 7.0 by HPLC

[2] = test system: Mycobacterium tuberculosis; assay: microbe, parasite or virus in culture; conditions: H37Rv
[3] = test system: Mycobacterium tuberculosis; assay: microbe, parasite or virus in culture; conditions: H37Rv; remark: listed apart in the source
Description: Antitubercular activity against Mycobacterium tuberculosis H37Rv by LORA method

With `COc1ccc(-c2ccccc2CO[C@@H]2COc3nc([N+](=O)[O-])cn3C2)cn1` the solubility [1] was 48 µg/mL (≈ 126 µM), the MIC [2] was 5.2 µM (≈ 1.99 µg/mL) and the MIC [3] was 8.3 µM (≈ 3.17 µg/mL).
`O=[N+]([O-])c1cn2c(n1)OC[C@@H](OCc1ccccc1-c1ccc(OCc3ccccc3)nc1)C2` gave a solubility [1] of 1.2 µg/mL (≈ 2.62 µM), an MIC [2] of 2.7 µM (≈ 1.24 µg/mL) and an MIC [3] of 10 µM (≈ 4.58 µg/mL).
With `O=[N+]([O-])c1cn2c(n1)OC[C@@H](OCc1ccccc1-c1ccncc1)C2` the MIC [2] was > 8 µM and the MIC [3] was > 32 µM.
Compound `O=[N+]([O-])c1cn2c(n1)OC[C@@H](OCc1cccc(-c3ccccn3)c1)C2` has an MIC [2] of 1.4 µM (≈ 0.493 µg/mL) and an MIC [3] of 11 µM (≈ 3.88 µg/mL).
In the case of `O=[N+]([O-])c1cn2c(n1)OC[C@@H](OCc1cccc(-c3ccc(C(F)(F)F)cn3)c1)C2`, the solubility [1] is reported as 4 µg/mL (≈ 9.52 µM), the MIC [2] is reported as 0.32 µM (≈ 0.135 µg/mL) and the MIC [3] is reported as 4.3 µM (≈ 1.81 µg/mL).
Work on `O=[N+]([O-])c1cn2c(n1)OC[C@@H](OCc1cccc(-c3ccc(OC(F)F)cn3)c1)C2` yielded a solubility [1] of 6.7 µg/mL (≈ 16 µM), an MIC [2] of 0.21 µM (≈ 0.0879 µg/mL) and an MIC [3] of 6.4 µM (≈ 2.68 µg/mL).
`O=[N+]([O-])c1cn2c(n1)OC[C@@H](OCc1cccc(-c3cccnc3)c1)C2` gave a solubility [1] of 110 µg/mL (≈ 312 µM), an MIC [2] of 1.4 µM (≈ 0.493 µg/mL) and an MIC [3] of 9.7 µM (≈ 3.42 µg/mL).
With `O=[N+]([O-])c1cn2c(n1)OC[C@@H](OCc1cccc(-c3ccc(C(F)(F)F)nc3)c1)C2` the solubility [1] was 1.1 µg/mL (≈ 2.62 µM), the MIC [2] was 0.47 µM (≈ 0.198 µg/mL) and the MIC [3] was 8.4 µM (≈ 3.53 µg/mL).
`O=[N+]([O-])c1cn2c(n1)OC[C@@H](OCc1cccc(-c3ccc(F)nc3)c1)C2` showed a solubility [1] of 26 µg/mL (≈ 70.2 µM), an MIC [2] of 0.37 µM (≈ 0.137 µg/mL) and an MIC [3] of 5.1 µM (≈ 1.89 µg/mL).
With `COc1ccc(-c2cccc(CO[C@@H]3COc4nc([N+](=O)[O-])cn4C3)c2)cn1` the solubility [1] was 18 µg/mL (≈ 47.1 µM), the MIC [2] was 0.4 µM (≈ 0.153 µg/mL) and the MIC [3] was 1.7 µM (≈ 0.65 µg/mL).
In the case of `O=[N+]([O-])c1cn2c(n1)OC[C@@H](OCc1cccc(-c3ccc(OCc4ccccc4)nc3)c1)C2`, the solubility [1] is reported as 0.15 µg/mL (≈ 0.327 µM), the MIC [2] is reported as 0.07 µM (≈ 0.0321 µg/mL) and the MIC [3] is reported as 3 µM (≈ 1.38 µg/mL).
With `O=[N+]([O-])c1cn2c(n1)OC[C@@H](OCc1cccc(-c3ccncc3)c1)C2` the MIC [2] was 1.4 µM (≈ 0.493 µg/mL) and the MIC [3] was > 32 µM.
Compound `O=[N+]([O-])c1cn2c(n1)OC[C@@H](OCc1ccc(-c3ccccn3)cc1)C2` has a solubility [1] of 7.3 µg/mL (≈ 20.7 µM), an MIC [2] of 0.21 µM (≈ 0.074 µg/mL) and an MIC [3] of 1.7 µM (≈ 0.599 µg/mL).
`O=[N+]([O-])c1cn2c(n1)OC[C@@H](OCc1ccc(-c3cccnc3)cc1)C2` gave a solubility [1] of 29 µg/mL (≈ 82.3 µM), an MIC [2] of 0.51 µM (≈ 0.18 µg/mL) and an MIC [3] of 5.7 µM (≈ 2.01 µg/mL).
`N#Cc1ccc(-c2ccc(CO[C@@H]3COc4nc([N+](=O)[O-])cn4C3)cc2)nc1` showed a solubility [1] of 1.7 µg/mL (≈ 4.5 µM), an MIC [2] of 0.08 µM (≈ 0.0302 µg/mL) and an MIC [3] of 2.5 µM (≈ 0.943 µg/mL).
`O=[N+]([O-])c1cn2c(n1)OC[C@@H](OCc1ccc(-c3cccc(F)n3)cc1)C2` gave a solubility [1] of 4.3 µg/mL (≈ 11.6 µM), an MIC [2] of 0.14 µM (≈ 0.0518 µg/mL) and an MIC [3] of 1.1 µM (≈ 0.407 µg/mL).
In the case of `COc1ccc(-c2ccc(CO[C@@H]3COc4nc([N+](=O)[O-])cn4C3)cc2)nc1`, the solubility [1] is reported as 2.5 µg/mL (≈ 6.54 µM), the MIC [2] is reported as 0.13 µM (≈ 0.0497 µg/mL) and the MIC [3] is reported as 1.2 µM (≈ 0.459 µg/mL).
`N#Cc1ccc(-c2ccc(CO[C@@H]3COc4nc([N+](=O)[O-])cn4C3)cc2)cn1` showed a solubility [1] of 3 µg/mL (≈ 7.95 µM), an MIC [2] of 0.2 µM (≈ 0.0755 µg/mL) and an MIC [3] of 2.4 µM (≈ 0.906 µg/mL).
Compound `O=[N+]([O-])c1cn2c(n1)OC[C@@H](OCc1ccc(-c3cncc(F)c3)cc1)C2` has a solubility [1] of 55 µg/mL (≈ 149 µM), an MIC [2] of 0.55 µM (≈ 0.204 µg/mL) and an MIC [3] of 2.8 µM (≈ 1.04 µg/mL).
`Nc1ccc(-c2ccc(CO[C@@H]3COc4nc([N+](=O)[O-])cn4C3)cc2)cn1` showed a solubility [1] of 13 µg/mL (≈ 35.4 µM), an MIC [2] of 2.6 µM (≈ 0.955 µg/mL) and an MIC [3] of 19 µM (≈ 6.98 µg/mL).
For `O=[N+]([O-])c1cn2c(n1)OC[C@@H](OCc1ccc(-c3ccc(OCc4ccccc4)nc3)cc1)C2`, the solubility [1] was 0.03 µg/mL (≈ 0.0654 µM), the MIC [2] was 0.04 µM (≈ 0.0183 µg/mL) and the MIC [3] was > 32 µM.
For `O=[N+]([O-])c1cn2c(n1)OC[C@@H](OCc1ccc(-c3ccncc3)cc1)C2`, the solubility [1] was 22 µg/mL (≈ 62.4 µM), the MIC [2] was 0.5 µM (≈ 0.176 µg/mL) and the MIC [3] was 9.2 µM (≈ 3.24 µg/mL).
For `O=[N+]([O-])c1cn2c(n1)OC[C@@H](OCc1ccc(-c3ccncc3F)cc1)C2`, the solubility [1] was 16 µg/mL (≈ 43.2 µM), the MIC [2] was 0.56 µM (≈ 0.207 µg/mL) and the MIC [3] was 3.9 µM (≈ 1.44 µg/mL).
Work on `O=[N+]([O-])c1cn2c(n1)OC[C@@H](OCc1cccc(-c3ccc(C(F)(F)F)cc3)n1)C2` yielded a solubility [1] of 5 µg/mL (≈ 11.9 µM), an MIC [2] of 0.29 µM (≈ 0.122 µg/mL) and an MIC [3] of 2.9 µM (≈ 1.22 µg/mL).
Work on `N#Cc1ccc(-c2cccc(CO[C@@H]3COc4nc([N+](=O)[O-])cn4C3)n2)cc1` yielded a solubility [1] of 24 µg/mL (≈ 63.6 µM), an MIC [2] of 0.48 µM (≈ 0.181 µg/mL) and an MIC [3] of 10 µM (≈ 3.77 µg/mL).
`O=[N+]([O-])c1cn2c(n1)OC[C@@H](OCc1cccc(-c3ccc(F)cc3)n1)C2` showed an MIC [2] of 0.3 µM (≈ 0.111 µg/mL) and an MIC [3] of 2.7 µM (≈ 1 µg/mL).
For `O=[N+]([O-])c1cn2c(n1)OC[C@@H](OCc1cccc(-c3ccc(OC(F)(F)F)cc3)n1)C2`, the MIC [2] was 0.16 µM (≈ 0.0698 µg/mL) and the MIC [3] was 1.4 µM (≈ 0.611 µg/mL).
Work on `O=[N+]([O-])c1cn2c(n1)OC[C@@H](OCc1cccc(-c3ccc(OC(F)F)cc3)n1)C2` yielded a solubility [1] of 9.6 µg/mL (≈ 22.9 µM), an MIC [2] of 0.17 µM (≈ 0.0711 µg/mL) and an MIC [3] of 2.7 µM (≈ 1.13 µg/mL).
`COc1ccc(-c2cccc(CO[C@@H]3COc4nc([N+](=O)[O-])cn4C3)n2)cc1F` gave a solubility [1] of 10 µg/mL (≈ 25 µM), an MIC [2] of 0.3 µM (≈ 0.12 µg/mL) and an MIC [3] of 4.3 µM (≈ 1.72 µg/mL).
Work on `COc1ccc(-c2cccc(CO[C@@H]3COc4nc([N+](=O)[O-])cn4C3)n2)cn1` yielded a solubility [1] of 14 µg/mL (≈ 36.5 µM), an MIC [2] of 0.71 µM (≈ 0.272 µg/mL) and an MIC [3] of 5.2 µM (≈ 1.99 µg/mL).
In the case of `O=[N+]([O-])c1cn2c(n1)OC[C@@H](OCc1ccnc(-c3ccc(C(F)(F)F)cc3)c1)C2`, the solubility [1] is reported as 2.8 µg/mL (≈ 6.66 µM), the MIC [2] is reported as 0.075 µM (≈ 0.0315 µg/mL) and the MIC [3] is reported as 4.4 µM (≈ 1.85 µg/mL).
In the case of `O=[N+]([O-])c1cn2c(n1)OC[C@@H](OCc1ccc(-c3ccc(C(F)(F)F)cc3)cc1)C2`, the solubility [1] is reported as 0.43 µg/mL (≈ 1.03 µM).
